According to US20210317454A1, “USE OF A TLR9 AGONIST IN METHODS FOR TREATING COVID-19” (priority 2020, published 2021):
“Also recorded” adds a separate entry of the source. Read-outs that look alike come from different tables or passages of the source.

Assays:
[1] = system: mediastinal lymph node immune cells; assay type: in vivo, BL6 mice; details: both pre and post-infection administration; B cells, CD4+, CD8+, granulocytes, macrophages, dendritic cells
[2] = system: HCV; details: cited from earlier work
[3] = system: tumor microenvironment; details: cited from earlier work
[4] = system: SARS-CoV2; details: for toxicity in mice: intranasal 2.5 mg/kg, 8 BL6 mice
[5] = system: Calu3 cells; details: dilutions above this excluded from analyses of conditions 1 and 2
[6] = system: SARS-CoV2; assay type: cell-based
[7] = system: B16. F10 melanoma pulmonary metastasis; details: intranasal versus subcutaneous; cited from earlier work
[8] = system: B16. F10 melanoma mouse models of colon carcinoma pulmonary metastasis; details: intranasal administration at very low doses compared with subcutaneous; cited from earlier work

## tilsotolimod: phosphorothioate oligonucleotide agonist of TLR9, sequence 5LTCG1AACG1TTCG1-X-G1CTTG1CAAG1CT-5′, X glycerol linker, G1 2′-deoxy-7-deazaguanosine (SEQ ID NO. 1) (DNA TCGAACGTTCGGCTTGCAAGCT; phosphorothioate, 7-deazaG, glycerol-linked 3'-3' dimer; (3)..(3) 2′-deoxy-7-deazaguanosine; (7)..(7) 2′-deoxy-7-deazaguanosine; (11)..(12) Linked by is a glycerol linker; (11)..(11) 2′-deoxy-7-deazaguanosine; (12)..(12) 2′-deoxy-7-deazaguanosine; (16)..(16) 2′-deoxy-7-deazaguanosine; (20)..(20) 2′-deoxy-7-deazaguanosine)
[1]
  number of immune cells in the mediastinal lymph nodes: robust infiltration of immune cells; also recorded: robust changes in the number of immune cells
[2]; 0.16 mg/kg twice weekly plus ribavirin compared with pegIFN-α2a plus ribavirin
  viral load reductions: greater
[2]; HCV-infected patients, all dose groups
  rapid viral response: none of the patients achieved rapid viral response
[2]; subcutaneous 0.08, 0.16, 0.32 mg/kg once weekly and 0.16 mg/kg twice weekly, 4 weeks, with ribavirin
  tolerability: well tolerated with no discontinuations due to treatment-emergent adverse events
[2]; tilsotolimod trials involving HCV
  cytokine storm: cytokine storm was not observed
[3]; IFNα gene signature, MHC class I expression, patient biopsies
  Type I IFN pathway and dendritic cell maturation: Activation of the Type I IFN pathway (induction of an IFNα gene signature) followed by maturation of dendritic cells
[3]; biopsies after receiving tilsotolimod
  time to immune effects in the tumor microenvironment: ≤ 24 h
[3]; injected and non-injected tumors
  CD8+ cytotoxic T lymphocytes and tumor response: systemic increases in CD8+ cytotoxic T lymphocytes (CTLs) with subsequent reduction of both injected and non-injected tumors
[4]; intranasal 2.5 mg/kg one day after virus exposure, lungs three days post-infection
  infectious SARS-CoV2 titer (TCID50/Lung): reduced infection, although not statistically significant
[4]; post-treatment group
  toxicity in mice: No toxicity was observed
[4]; pre-treatment group
  toxicity in mice: one mouse died, and two showed signs of reduced mobility
[5]
  concentration above which tilsotolimod induced toxicity: above 3 μM
[6]; treatment condition 1: 24 h pre-treatment, then infection for 48 hours
  antiviral activity compared with controls: None of the serial dilutions for treatment condition 1 (tilsotolimod 24 h pre-treatment) resulted in significant antiviral activity
[6]; treatment condition 2: co-treatment with SARS-CoV2 for 48 hours, most effective dilution 0.41 μM
  reduction in TCID50: ~1 log
[6]; treatment condition 3: supernatant of 24 h pretreated Calu3 cells added to fresh cells then infected, 1:10 serial dilution (33 μM)
  reduction in TCID50: ~3 log
[7]
  antitumor potency of intranasal relative to subcutaneous treatment: approximately 25 times
[8]
  tumor-specific CTLs in tracheobronchial lymph nodes: significant increase
